According to PubChem BioAssay AID2060488 (Molecular Pharmacology Branch, DTP, NCI, 2025):

Test system: 966289-007-R4-J1-PDC complex spheroid viability
Assay: Anticancer human tumor 966289-007-R4-J1-PDC patient-derived pancreatic adenocarcinoma cell line growth inhibition [GQUAD]
Conditions: for IC50: curve of first compound; for viability, T/C: stronger effect = lower value
Method in brief: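 Multi-cell-type spheroids of tumor cells with HUVEC and mesenchymal stem cells, treated with drug combinations. Concentrations descend in half-log steps from near clinical Cmax, or from 10 microM where Cmax is unknown; viability read-out.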

[1] = second compound 0.0316 µM, first compound 0.0316 µM
[2] = second compound 0.0316 µM, first compound 0.1 µM
[3] = second compound 0.0316 µM, first compound 0.316 µM
[4] = second compound 0.0316 µM, first compound 1 µM
[5] = second compound 0.0316 µM, first compound 3.16 µM
[6] = second compound 0.0316 µM, first compound 10 µM
[7] = second compound 0.1 µM, first compound 0.0316 µM
[8] = second compound 0.1 µM, first compound 0.1 µM
[9] = second compound 0.1 µM, first compound 0.316 µM
[10] = second compound 0.1 µM, first compound 1 µM
[11] = second compound 0.1 µM, first compound 3.16 µM
[12] = second compound 0.1 µM, first compound 10 µM
[13] = second compound 0.316 µM, first compound 0.0316 µM
[14] = second compound 0.316 µM, first compound 0.1 µM
[15] = second compound 0.316 µM, first compound 0.316 µM
[16] = second compound 0.316 µM, first compound 1 µM
[17] = second compound 0.316 µM, first compound 3.16 µM
[18] = second compound 0.316 µM, first compound 10 µM
[19] = second compound 1 µM, first compound 0.0316 µM
[20] = second compound 1 µM, first compound 0.1 µM
[21] = second compound 1 µM, first compound 0.316 µM
[22] = second compound 1 µM, first compound 1 µM
[23] = second compound 1 µM, first compound 3.16 µM
[24] = second compound 1 µM, first compound 10 µM
[25] = second compound 3.16 µM, first compound 0.0316 µM
[26] = second compound 3.16 µM, first compound 0.1 µM
[27] = second compound 3.16 µM, first compound 0.316 µM
[28] = second compound 3.16 µM, first compound 1 µM
[29] = second compound 3.16 µM, first compound 3.16 µM
[30] = second compound 3.16 µM, first compound 10 µM
[31] = second compound 10 µM, first compound 0.0316 µM
[32] = second compound 10 µM, first compound 0.1 µM
[33] = second compound 10 µM, first compound 0.316 µM
[34] = second compound 10 µM, first compound 1 µM
[35] = second compound 10 µM, first compound 3.16 µM
[36] = second compound 10 µM, first compound 10 µM
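Further: spheroids exposed to the agents for seven days before readout.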
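Wherever viability, T/C is given: percent viability relative to DMSO vehicle control wells taken as 100%.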

SMILES: CC(C)n1c(=O)n(C)c2cnc3cc(F)c(-c4ccc(OCCCN5CCCCC5)nc4)cc3c21 + CN(C)c1ccc(Nc2c3ccc(NC(=O)CCN4CCCC4)cc3nc3cc(NC(=O)CCN4CCCC4)ccc23)cc1
- IC50 (second compound 0.0316 µM): > 10000 nM
- IC50 (second compound 0.1 µM): > 10000 nM
- IC50 (second compound 0.316 µM): > 10000 nM
- IC50 (second compound 1 µM): > 10000 nM
- IC50 (second compound 3.16 µM): 5670 nM
- IC50 (second compound 10 µM): 269 nM
- viability, T/C [1]: 108%
- viability, T/C [2]: 105%
- viability, T/C [3]: 108%
- viability, T/C [4]: 106%
- viability, T/C [5]: 108%
- viability, T/C [6]: 87.5%
- viability, T/C [7]: 103%
- viability, T/C [8]: 102%
- viability, T/C [9]: 106%
- viability, T/C [10]: 106%
- viability, T/C [11]: 107%
- viability, T/C [12]: 88%
- viability, T/C [13]: 98.1%
- viability, T/C [14]: 103%
- viability, T/C [15]: 107%
- viability, T/C [16]: 109%
- viability, T/C [17]: 107%
- viability, T/C [18]: 86.6%
- viability, T/C [19]: 103%
- viability, T/C [20]: 99.5%
- viability, T/C [21]: 107%
- viability, T/C [22]: 108%
- viability, T/C [23]: 103%
- viability, T/C [24]: 70.5%
- viability, T/C [25]: 102%
- viability, T/C [26]: 104%
- viability, T/C [27]: 107%
- viability, T/C [28]: 102%
- viability, T/C [29]: 87.1%
- viability, T/C [30]: 14.1%
- viability, T/C [31]: 98.7%
- viability, T/C [32]: 79%
- viability, T/C [33]: 46%
- viability, T/C [34]: 16%
- viability, T/C [35]: 5.65%
- viability, T/C [36]: 1.75%

SMILES: CC1COCCN1c1cc(-c2ccnn2C)c2ccnc(-c3ccn[nH]3)c2n1 (stereo not given) + CN(C)c1ccc(Nc2c3ccc(NC(=O)CCN4CCCC4)cc3nc3cc(NC(=O)CCN4CCCC4)ccc23)cc1
- IC50 (second compound 0.0316 µM): 213 nM
- IC50 (second compound 0.1 µM): 228 nM
- IC50 (second compound 0.316 µM): 214 nM
- IC50 (second compound 1 µM): 240 nM
- IC50 (second compound 3.16 µM): 217 nM
- IC50 (second compound 10 µM): 143 nM
- viability, T/C [1]: 113%
- viability, T/C [2]: 88.9%
- viability, T/C [3]: 29.1%
- viability, T/C [4]: 11.2%
- viability, T/C [5]: 6.12%
- viability, T/C [6]: 3.97%
- viability, T/C [7]: 113%
- viability, T/C [8]: 97.5%
- viability, T/C [9]: 30.8%
- viability, T/C [10]: 10.2%
- viability, T/C [11]: 5.52%
- viability, T/C [12]: 4.49%
- viability, T/C [13]: 108%
- viability, T/C [14]: 89.6%
- viability, T/C [15]: 29.3%
- viability, T/C [16]: 11%
- viability, T/C [17]: 5.87%
- viability, T/C [18]: 4.36%
- viability, T/C [19]: 107%
- viability, T/C [20]: 96.2%
- viability, T/C [21]: 35.1%
- viability, T/C [22]: 10.6%
- viability, T/C [23]: 4.68%
- viability, T/C [24]: 4.37%
- viability, T/C [25]: 110%
- viability, T/C [26]: 94.3%
- viability, T/C [27]: 28.2%
- viability, T/C [28]: 10.7%
- viability, T/C [29]: 6.99%
- viability, T/C [30]: 5.79%
- viability, T/C [31]: 103%
- viability, T/C [32]: 64.3%
- viability, T/C [33]: 18.2%
- viability, T/C [34]: 9.04%
- viability, T/C [35]: 5.74%
- viability, T/C [36]: 4.94%

SMILES: CC1COCCN1c1cc(C2(O)CC3CCC(C2)O3)c2cnn(-c3ccn[nH]3)c2n1 (stereo not given) + CN(C)c1ccc(Nc2c3ccc(NC(=O)CCN4CCCC4)cc3nc3cc(NC(=O)CCN4CCCC4)ccc23)cc1
- IC50 (second compound 0.0316 µM): 176 nM
- IC50 (second compound 0.1 µM): 177 nM
- IC50 (second compound 0.316 µM): 176 nM
- IC50 (second compound 1 µM): 167 nM
- IC50 (second compound 3.16 µM): 147 nM
- IC50 (second compound 10 µM): 74.1 nM
- viability, T/C [1]: 116%
- viability, T/C [2]: 75.1%
- viability, T/C [3]: 24.1%
- viability, T/C [4]: 8.6%
- viability, T/C [5]: 5.79%
- viability, T/C [6]: 5.95%
- viability, T/C [7]: 112%
- viability, T/C [8]: 81.4%
- viability, T/C [9]: 18.1%
- viability, T/C [10]: 8.59%
- viability, T/C [11]: 5.93%
- viability, T/C [12]: 5.58%
- viability, T/C [13]: 109%
- viability, T/C [14]: 75.8%
- viability, T/C [15]: 23.1%
- viability, T/C [16]: 9%
- viability, T/C [17]: 5.73%
- viability, T/C [18]: 5.87%
- viability, T/C [19]: 103%
- viability, T/C [20]: 74.3%
- viability, T/C [21]: 19.6%
- viability, T/C [22]: 8.84%
- viability, T/C [23]: 6.93%
- viability, T/C [24]: 4.89%
- viability, T/C [25]: 104%
- viability, T/C [26]: 65.6%
- viability, T/C [27]: 19.1%
- viability, T/C [28]: 8.61%
- viability, T/C [29]: 6.25%
- viability, T/C [30]: 4.79%
- viability, T/C [31]: 86.3%
- viability, T/C [32]: 37.3%
- viability, T/C [33]: 12.7%
- viability, T/C [34]: 6.7%
- viability, T/C [35]: 6.68%
- viability, T/C [36]: 3.1%

SMILES: CC1COCCN1c1cc(C2(S(C)(=N)=O)CC2)nc(-c2ccnc3[nH]ccc23)n1 (stereo not given) + CN(C)c1ccc(Nc2c3ccc(NC(=O)CCN4CCCC4)cc3nc3cc(NC(=O)CCN4CCCC4)ccc23)cc1
- IC50 (second compound 0.0316 µM): 4690 nM
- IC50 (second compound 0.1 µM): 4360 nM
- IC50 (second compound 0.316 µM): 4250 nM
- IC50 (second compound 1 µM): 4420 nM
- IC50 (second compound 3.16 µM): 3930 nM
- IC50 (second compound 10 µM): 2000 nM
- viability, T/C [1]: 106%
- viability, T/C [2]: 102%
- viability, T/C [3]: 102%
- viability, T/C [4]: 101%
- viability, T/C [5]: 69.8%
- viability, T/C [6]: 12.3%
- viability, T/C [7]: 100%
- viability, T/C [8]: 101%
- viability, T/C [9]: 102%
- viability, T/C [10]: 105%
- viability, T/C [11]: 64.7%
- viability, T/C [12]: 12.1%
- viability, T/C [13]: 99.8%
- viability, T/C [14]: 102%
- viability, T/C [15]: 104%
- viability, T/C [16]: 99.8%
- viability, T/C [17]: 62.6%
- viability, T/C [18]: 12.8%
- viability, T/C [19]: 89.5%
- viability, T/C [20]: 97%
- viability, T/C [21]: 104%
- viability, T/C [22]: 103%
- viability, T/C [23]: 65.5%
- viability, T/C [24]: 12.3%
- viability, T/C [25]: 99.8%
- viability, T/C [26]: 100%
- viability, T/C [27]: 106%
- viability, T/C [28]: 104%
- viability, T/C [29]: 58.8%
- viability, T/C [30]: 12.4%
- viability, T/C [31]: 104%
- viability, T/C [32]: 101%
- viability, T/C [33]: 101%
- viability, T/C [34]: 94%
- viability, T/C [35]: 20.9%
- viability, T/C [36]: 4.7%

SMILES: COc1ccc([C@@H](O)c2cc(-c3ncnc4cc(N5CCOCC5)ccc34)c(F)cc2Cl)nn1 + CN(C)c1ccc(Nc2c3ccc(NC(=O)CCN4CCCC4)cc3nc3cc(NC(=O)CCN4CCCC4)ccc23)cc1
- IC50 (second compound 0.0316 µM): > 10000 nM
- IC50 (second compound 0.1 µM): > 10000 nM
- IC50 (second compound 0.316 µM): > 10000 nM
- IC50 (second compound 1 µM): > 10000 nM
- IC50 (second compound 3.16 µM): > 10000 nM
- IC50 (second compound 10 µM): 1970 nM
- viability, T/C [1]: 104%
- viability, T/C [2]: 98.6%
- viability, T/C [3]: 104%
- viability, T/C [4]: 108%
- viability, T/C [5]: 110%
- viability, T/C [6]: 99.5%
- viability, T/C [7]: 101%
- viability, T/C [8]: 97.8%
- viability, T/C [9]: 103%
- viability, T/C [10]: 104%
- viability, T/C [11]: 109%
- viability, T/C [12]: 98.1%
- viability, T/C [13]: 99.8%
- viability, T/C [14]: 99.5%
- viability, T/C [15]: 106%
- viability, T/C [16]: 107%
- viability, T/C [17]: 107%
- viability, T/C [18]: 90.6%
- viability, T/C [19]: 101%
- viability, T/C [20]: 101%
- viability, T/C [21]: 107%
- viability, T/C [22]: 108%
- viability, T/C [23]: 111%
- viability, T/C [24]: 93%
- viability, T/C [25]: 101%
- viability, T/C [26]: 97.4%
- viability, T/C [27]: 108%
- viability, T/C [28]: 105%
- viability, T/C [29]: 109%
- viability, T/C [30]: 83.4%
- viability, T/C [31]: 103%
- viability, T/C [32]: 97.3%
- viability, T/C [33]: 101%
- viability, T/C [34]: 89.2%
- viability, T/C [35]: 22.6%
- viability, T/C [36]: 8.27%
